Reference: ChEMBL document CHEMBL1201862, “PubChem BioAssay data set” (2004)
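Results reflect a 48-hour exposure of cells in 96-well plates to compound at five concentrations. GI50 marks 50% less growth.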 The source made the active and inactive calls. Cut-off read from the data, not from the text of the source: active = GI50 up to about 1.1 µM and inactive = higher.

Key:
Test in all cases: DTP human tumour cell line panel, 48 h
HOP-62 = system: HOP-62
U-251 = system: U-251
M14 = system: M14
SN12C = system: SN12C
SK-OV-3 = system: SK-OV-3
RXF 393 = system: RXF 393
SK-MEL-28 = system: SK-MEL-28
TK-10 = system: TK-10
SW-620 = system: SW-620
NCI-H23 = system: NCI-H23
HT-29 = system: HT-29
SF-268 = system: SF-268
RPMI-8226 = system: RPMI-8226
SNB-75 = system: SNB-75
OVCAR-3 = system: OVCAR-3
KM12 = system: KM12
SR = system: SR

Measured: GI50

Cn1nc(-c2ccccc2)c(C(=O)/C=C/c2ccc(Cl)cc2)c(N2CCOCC2)c1=O
inactive: HOP-62 10.5 µM | U-251 3.37 µM | M14 3.98 µM | SN12C 5.7 µM | SK-OV-3 5.51 µM | RXF 393 2.34 µM | SK-MEL-28 2.58 µM | TK-10 7.94 µM | SW-620 4.12 µM | NCI-H23 2.74 µM | HT-29 1.83 µM | SF-268 3.48 µM | RPMI-8226 2.34 µM

COc1ccc(C(=O)C(C(=O)C(=O)Nc2nc3ccc(OC)cc3s2)c2ccc(OC)cc2)cc1 (centres undefined)
inactive: HOP-62 > 100 µM | U-251 > 100 µM | M14 > 100 µM | SN12C > 100 µM | SNB-75 26.5 µM | SK-OV-3 > 100 µM | OVCAR-3 > 100 µM | KM12 > 100 µM | SK-MEL-28 > 100 µM | TK-10 > 100 µM | SW-620 > 100 µM | NCI-H23 > 100 µM | HT-29 > 100 µM | SF-268 > 100 µM | RPMI-8226 > 100 µM

COc1ccc(C(=O)NCCN(C)C)c2nc3ccccc3nc12
inactive: HOP-62 3.3 µM | U-251 4.79 µM | M14 5.37 µM | SN12C 3.62 µM | SNB-75 8.11 µM | SK-OV-3 19.5 µM | OVCAR-3 5.25 µM | RXF 393 11.4 µM | KM12 4.82 µM | SK-MEL-28 5.89 µM | TK-10 5.18 µM | SW-620 2.7 µM | NCI-H23 4.72 µM | HT-29 2.76 µM | RPMI-8226 3.21 µM
active: SR 0.708 µM

COc1ccc(N2C(=O)[C@@H](N=[N+]=[N-])[C@@H]2[C@H]2COC(C)(C)O2)cc1
inactive: HOP-62 > 100 µM | SR > 100 µM | U-251 > 100 µM | M14 > 100 µM | SN12C > 100 µM | SNB-75 > 100 µM | SK-OV-3 > 100 µM | OVCAR-3 > 100 µM | RXF 393 > 100 µM | KM12 > 100 µM | SK-MEL-28 > 100 µM | SW-620 > 100 µM | NCI-H23 > 100 µM | HT-29 > 100 µM | SF-268 > 100 µM | RPMI-8226 > 100 µM

CN(C)CCNC(=O)c1cccc2nc3cc(Cl)ccc3nc12
active: SR 0.531 µM | SW-620 1.06 µM
inactive: HOP-62 2.14 µM | U-251 2.86 µM | M14 3 µM | SN12C 2.07 µM | SNB-75 2.52 µM | SK-OV-3 5.94 µM | OVCAR-3 2.17 µM | RXF 393 2.15 µM | KM12 2.51 µM | SK-MEL-28 2.9 µM | TK-10 2.7 µM | NCI-H23 2 µM | HT-29 1.36 µM | RPMI-8226 3.07 µM

c1ccc2cc3[s+]snc3cc2c1
inactive: HOP-62 > 100 µM | SR > 100 µM | U-251 85.9 µM | M14 > 100 µM | SN12C > 100 µM | SNB-75 > 100 µM | SK-OV-3 > 100 µM | OVCAR-3 > 100 µM | RXF 393 > 100 µM | KM12 > 100 µM | SK-MEL-28 > 100 µM | TK-10 > 100 µM | SW-620 > 100 µM | NCI-H23 > 100 µM | HT-29 > 100 µM | SF-268 > 100 µM

COc1cccc(NC(=O)CC(=O)N2N=C(N(CCC#N)c3ccccc3C)CC2c2ccccc2)c1 (centres undefined)
inactive: HOP-62 > 100 µM | SR > 100 µM | U-251 > 100 µM | M14 > 100 µM | SN12C > 100 µM | SNB-75 > 100 µM | SK-OV-3 > 100 µM | OVCAR-3 > 100 µM | RXF 393 > 100 µM | KM12 > 100 µM | SK-MEL-28 > 100 µM | SW-620 > 100 µM | NCI-H23 > 100 µM | HT-29 > 100 µM | SF-268 > 100 µM | RPMI-8226 > 100 µM

N#CC(C(=O)CCCC(=O)Nc1ccc(Cl)cc1Cl)c1ccc(Cl)cc1 (centres undefined)
inactive: HOP-62 > 100 µM | SR > 100 µM | M14 > 100 µM | SN12C > 100 µM | SNB-75 > 100 µM | SK-OV-3 > 100 µM | OVCAR-3 > 100 µM | KM12 > 100 µM | SK-MEL-28 > 100 µM | TK-10 > 100 µM | SW-620 > 100 µM | NCI-H23 > 100 µM | HT-29 > 100 µM | SF-268 > 100 µM | RPMI-8226 > 100 µM

N#C/C(=C\c1ccccc1O)C(N)=O
inactive: HOP-62 > 100 µM | U-251 > 100 µM | M14 > 100 µM | SN12C > 100 µM | SNB-75 28.1 µM | SK-OV-3 53.1 µM | OVCAR-3 48.5 µM | RXF 393 25.7 µM | KM12 56.5 µM | SK-MEL-28 > 100 µM | TK-10 > 100 µM | SW-620 76.2 µM | NCI-H23 82.4 µM | HT-29 86.9 µM | SF-268 81.7 µM | RPMI-8226 60.8 µM
